Among the data in US8748520B2, “Polycarbonate resin composition containing triazine compound and molded article using the same” (FUJIFILM Corporation, priority 2009, dated 2014) are pKa values, retold here.

A short description of the series: Measurement of pKa from absorption spectra. The class given is physicochemical. To be noted: in acetonitrile, 70% perchloric acid (solvent: acetic acid) added dropwise; proton adduct at nitrogen atom of triazine ring. The protocol: <Method for Measuring pKa>
Compound (1) was dissolved in acetonitrile to give an absorbance of 1 and to this solution, 70% perchloric acid (solvent: acetic acid) was added dropwise, thereby varying the pH. At this time, the absorption spectrum of solution was measured and based on the absorbance at λmax, the proportions of a triazine-free form and a proton adduct were calculated at each pH. From the point at which these values became equal, the pKa value was determined. Here, the triazine-free form indicates Compound (1) itself, and the proton adduct indicates a compound resulting from addition of a proton to the nitrogen atom of triazine ring of Compound (1). […] The absorption spectrum was measured using a spectrophotometer, UV-3600 (trade name), manufactured by Shimadzu Corporation, and the pH was measured using a pH meter, HM60G (trade name), manufactured by To a Denpa Kogyo. Incidentally, the absorbance is a value measured at the maximum absorption wavelength of each compound.

With `CCCCCCCCCC(CCCCCCC)COC(=O)c1ccc(-c2nc(-c3ccccc3O)nc(-c3ccc(OC)cc3O)n2)cc1` (stereo not shown) [Compound (118)], the pKa was -5. As for `COC(=O)c1ccc(-c2nc(-c3ccccc3O)nc(-c3ccc(OC)cc3O)n2)cc1` [Compound (104)], the figure is -5; as for `CCCCCCCCC(CCCCCC)COC(=O)c1ccc(-c2nc(-c3ccccc3O)nc(-c3ccc(OC)cc3O)n2)cc1` (stereo not shown) [Compound (115)], -5; as for `CCC(C)CCCCCC(CCCC(C)CC)COC(=O)c1ccc(-c2nc(-c3ccccc3O)nc(-c3ccc(OC)cc3O)n2)cc1` (stereo not shown) [Compound (116)], -5. Then `COc1ccc(-c2nc(-c3ccc(C(=O)OCC(CCC(C)CCCC(C)C)C(C)CCCC(C)C)cc3)nc(-c3ccccc3O)n2)c(O)c1` (stereo not shown) [Compound (119)], with -5. Then `COc1ccc(-c2nc(-c3ccc(C(=O)OCC(CCC(C)CC(C)(C)C)C(C)CC(C)(C)C)cc3)nc(-c3ccccc3O)n2)c(O)c1` (stereo not shown) [Compound (117)], with -5. With `COc1ccc(-c2nc(-c3ccc(C(=O)OCC(CCCCC(C)C)CCC(C)C)cc3)nc(-c3ccccc3O)n2)c(O)c1` (stereo not shown) [Compound (114)], the pKa was -5.
